From ChEMBL document CHEMBL3588857, “Peroxisome proliferator-activated receptor gamma (PPARγ) has multiple binding points that accommodate ligands in various conformations: Structurally similar PPARγ partial agonists bind to PPARγ LBD in different conformations” (Bioorg Med Chem Lett, 2015)
Activity calls are given as the source filed them. No cut-off for these calls is given here.

Columns and labels:
[1] = molecular target: T1, Peroxisome proliferator-activated receptor gamma (Homo sapiens) (UniProt P37231); test: Partial agonist activity at PPARgamma (unknown origin) assessed as induction of receptor transactivation at 0.1 to 10 uM relative to 10 uM pioglitazone
T1 sequence (whole entry): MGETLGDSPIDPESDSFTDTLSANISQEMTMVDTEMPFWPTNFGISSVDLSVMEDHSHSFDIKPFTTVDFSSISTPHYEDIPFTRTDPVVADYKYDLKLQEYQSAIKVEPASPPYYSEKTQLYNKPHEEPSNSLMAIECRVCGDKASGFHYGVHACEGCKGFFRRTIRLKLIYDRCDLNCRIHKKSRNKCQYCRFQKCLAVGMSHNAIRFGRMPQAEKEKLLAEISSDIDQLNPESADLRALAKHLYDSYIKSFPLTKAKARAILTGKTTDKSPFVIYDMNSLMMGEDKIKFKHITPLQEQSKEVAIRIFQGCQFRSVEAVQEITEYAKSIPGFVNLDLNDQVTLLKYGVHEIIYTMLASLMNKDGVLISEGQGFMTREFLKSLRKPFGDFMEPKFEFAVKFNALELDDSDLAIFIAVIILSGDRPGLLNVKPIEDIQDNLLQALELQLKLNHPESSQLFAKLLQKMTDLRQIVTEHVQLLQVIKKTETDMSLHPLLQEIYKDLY

[2] = molecular target: T1, Peroxisome proliferator-activated receptor gamma (Homo sapiens); test: Antagonist activity at PPARgamma (unknown origin) assessed as inhibition of 10 uM pioglitazone-induced receptor transactivation at 0.1 to 10 uM

CCCOc1ccc(C(=O)NS(=O)(=O)Cc2ccccc2)cc1CNC(=O)c1ccc(-c2ncccn2)cc1
Activity [1]: Active
inhibition [2]: Dose-dependent effect
